These results are taken from patent US12384777B2 (Tay Therapeutics Limited, priority 2019, dated 2025).

Data set [1] can be described thus: Hydrolytic stability at a range of pHs. As to conditions: for decomposition at all pH values tested: pH 4.0, 5.5 and 7.4, text summary; for pH 4.0 % decomposition: pH 4.0 buffer; for pH 4.0 % decomposition / pH 5.5 % decomposition / pH 7.4 % decomposition: 60° C., 6 days; for pH 5.5 % decomposition: pH 5.5 buffer; for pH 7.4 % decomposition: pH 7.4 buffer. In kind it is physicochemical. As to the method:
To test the hydrolytic stability a 1 mg/mL solution of test materials was made in DMSO (0.1% solution). To 300 μL of each solution in a HPLC vials was added 1200 μL of one of the following: pH 4.0 buffer—left at 60° C. for 5 days. Samples taken t=0 hr and 6 days pH 5.5 buffer—left at 60° C. for 5 days. Samples taken t=0 hr and 6 days pH 7.4 buffer—left at 60° C. for 5 days. Samples taken t=0 hr and 6 days A 100 μL aliquot was taken at each time point and added to 900 μL of DMSO. This sample was used to determine % decomposition.
% decomposition was measured with a Bruker MicrOTOF II focus ESI Mass Spectrometer connected in parallel to Dionex Ultimate 3000 RSLC system with diode array detector.

Another data set concerns human liver hepatocytes. The data set can be described thus: Intrinsic clearance in human liver hepatocytes. In kind it is in vitro ADME. The conditions noted are these: human cryopreserved hepatocytes, 0.5 μM test compound. The method in brief: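 Cryopreserved human hepatocytes in supplemented Williams Medium E were incubated at 37 °C, 5% CO2, with 0.5 μM compound at 0.25 million cells/mL final. Aliquots taken up to 120 min were quenched into acetonitrile and analysed by UPLC-MS/MS. Clearance came from an exponential decay fit of compound-to-internal-standard ratio over time.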

Data set [2] in a line: Solubility in topical formulations. As to conditions: thermodynamic from solid, 5 hr at 32° C. The data set is classed as physicochemical. As to the method: The solubilities of solid exemplary compounds were determined in a selection of solvents and solvent combinations (Transcutol, 50:50 Transcutol:water, Labrasol, propylene glycol and 1:5:4 ethanol:propylene glycol:water), after equilibration. An appropriate volume of each combination was added to a manual weighing of solid compound to provide a 20 mg/mL concentration. The resulting suspension was shaken at 1000 rpm for 5 hr at 32° C. before centrifugation at 13,000×g for 10 min to pellet any precipitate. The supernatant solution was removed and inserted into a HPLC vial and quantified by HPLC-UV against a calibration of a known concentration of the compound in DMSO.

The nature of data set [3]: Stability in human skin S9 fraction. The data set is classed as in vitro ADME. The conditions noted are these: human, human skin S9 fraction, pH 7.4; 0.3 mg/mL S9, NADPH, UDPGA, 0.5 μM compound; read-out: T1/2 (min) in human skin S9 fractions. The protocol: An incubation mixture was prepared containing 50 mM potassium phosphate buffer, pH 7.4), 0.3 mg/mL human skin S9 (Sekisui Xenotech), NADPH (final conc 0.8 mg/mL), UDPGA (final conc 0.16 mg/mL) and warmed to 37° C. for 5 min. The reaction was initiated upon addition of test compound (final concentration 0.5 μM). Immediately, at time zero, then at 3, 6, 15, 30, 60, 120 and 180 min, an aliquot (50 μL) of the incubation mixture was removed and mixed with acetonitrile (100 μL) to terminate the reaction. Internal standard was added to all samples, the samples centrifuged to sediment precipitated protein and the plates then sealed prior to UPLC-MS/MS analysis using a Quattro Premier XE (Waters corporation, USA).
Grafit (Erithacus Ltd) was used to calculate the exponential decay and consequently the rate constant (k) from the ratio of peak area of test compound to internal standard at each timepoint. The half life (T1/2) of each test compound was determined using the following equation: T1/2=0.693/k

The target of the next data set is BRD4 BD2 (Homo sapiens (Human), UniProt O60885). Kind of data set: Bromodomain binding assay (T7 phage display, qPCR), BRD4 BD2. As to conditions: for Kd: read-out: BRD4 BD2 Kd. The protocol: T7 phage strains displaying bromodomains were grown in parallel in 24-well blocks in an E. coli host derived from the BL21 strain. E. coli were grown to log-phase and infected with T7 phage from a frozen stock (multiplicity of infection=0.4) and incubated with shaking at 32° C. until lysis (90-150 min). The lysates were centrifuged (5,000×g) and filtered (0.2 μm) to remove cell debris. Streptavidin-coated magnetic beads were treated with biotinylated small molecule or acetylated peptide ligands for 30 min at RT to generate affinity resins for bromodomain assays. The ligated beads were blocked with excess biotin and washed with blocking buffer (SeaBlock (Pierce), 1% BSA, 0.05% Tween 20, 1 mM DTT) to remove unbound ligand and to reduce non-specific phage binding. Binding reactions were assembled by combining bromodomains, ligated affinity beads, and test compounds in 1× binding buffer (16% SeaBlock, 0.32×PBS, 0.02% BSA, 0.04% Tween 20, 0.004% Sodium azide, 7.9 mM DTT). Test compounds were prepared as 1000× stocks in 100% DMSO and subsequently diluted 1:25 in MEG. The compounds were then diluted directly into the assays such that the final concentrations of DMSO and MEG were 0.1% and 2.4%, respectively. All reactions were performed in polypropylene 384-well plates in a final volume of 0.02 ml. The assay plates were incubated at RT with shaking for 1 hr and the affinity beads were washed with wash buffer (1×PBS, 0.05% Tween 20). The beads were then re-suspended in elution buffer (1×PBS, 0.05% Tween 20, 2 μM non-biotinylated affinity ligand) and incubated at RT with shaking for 30 min. The bromodomain concentration in the eluates was measured by quantitative polymerase chain reaction (qPCR).
An 11-point 3-fold serial dilution of each test compound was prepared in 100% DMSO at 1000× final test concentration. All compounds were distributed by acoustic transfer (non-contact dispensing) in 100% DMSO. The compounds were then diluted directly into the assays such that the final concentration of DMSO was 0.09%. Most dissociation constants were determined using a compound top concentration=10,000 nM. If the initial dissociation constant determined was <0.169 nM (the lowest concentration tested), the measurement was repeated with a serial dilution starting at a lower top concentration.
The same bromodomain assay procedure as that outlined above was used. Example compounds were screened at 30 times their Kd, and results for primary screen binding interactions are reported as ‘% Ctrl’, where lower numbers indicate stronger hits in the matrix.
On the technique in general: Real-time PCR tracks product formation cycle by cycle.

[4] abbreviates: Labrasol, oil or lipid, read-out: Solubility in LB (Labrasol).
Setting [5] is: Transcutol, organic solvent or mixture, read-out: Solubility in TC (Transcutol).
[6] abbreviates: Transcutol:water 1:1, aqueous with cosolvent or surfactant or cyclodextrin, read-out: Solubility in TC:water 1:1.
Where [7] appears, read: ethanol:propylene glycol:water 1:5:4, aqueous with cosolvent or surfactant or cyclodextrin, read-out: Solubility in EtOH:PG:water 1:5:4.
Where [8] appears, read: propylene glycol, organic solvent or mixture, read-out: Solubility in PG (Propylene glycol).

Read-outs that look alike come from different tables or passages of the source.

For `Cn1cc(-c2c(O)cccc2Oc2ccccc2)c2cc[nH]c2c1=O` [Example 3, 4-(2-hydroxy-6-phenoxyphenyl)-6-methyl-1,6-dihydro-7H-pyrrolo[2,3-c]pyridin-7-one], in data set [1], the “decomposition at all pH values tested” value is given as < 5%. Besides, the “pH 4.0 % decomposition” value in data set [1] is on record as 0%. Further, the “pH 5.5 % decomposition” value in data set [1] was 0%. Further, the “pH 7.4 % decomposition” value in data set [1] was found to be 0%. In addition, in the data set with human liver hepatocytes, the “Intrinsic clearance, % Liver Blood Flow” value came out at 86 % Liver Blood Flow. Moreover, the solubility at 5 hr in data set [2] (setting [4]) is > 10000 µg/mL; in data set [2] (setting [5]), > 10000 µg/mL; in data set [2] (setting [6]) it was > 10000 µg/mL; in data set [2] (setting [7]), 1000 to 10000 µg/mL; in data set [2] (setting [8]), > 10000 µg/mL. Further, the half-life at 0.5 μM in data set [3] is > 120 min. The Kd on BRD4 BD2 is ≤ 0.01 µM.

Turning to `Cn1cc(-c2cccc(O)c2Oc2ccccc2)c2cc[nH]c2c1=O` [Example 1, 4-(3-hydroxy-2-phenoxyphenyl)-6-methyl-1,6-dihydro-7H-pyrrolo[2,3-c]pyridin-7-one], the “decomposition at all pH values tested” value in data set [1] was < 5%. Also, in data set [1], the “pH 4.0 % decomposition” value was determined as 0%. In data set [1], the “pH 5.5 % decomposition” value came to 0%. Also, the “pH 7.4 % decomposition” value in data set [1] is 0%. Also, the “Intrinsic clearance, % Liver Blood Flow” value with human liver hepatocytes was found to be 83 % Liver Blood Flow. For the same compound, the solubility at 5 hr was 1000 to 10000 µg/mL in data set [2] (setting [4]); > 10000 µg/mL in data set [2] (setting [5]); 1000 to 10000 µg/mL in data set [2] (setting [6]); 1000 to 10000 µg/mL in data set [2] (setting [7]); 1000 to 10000 µg/mL in data set [2] (setting [8]). For the same compound, the half-life at 0.5 μM in data set [3] is > 120 min. Besides, the Kd at BRD4 BD2 was ≤ 0.01 µM. Also, the “BRD4(2) % Ctrl” value on BRD4 BD2 (single point, screened at 30 times Kd, lower numbers indicate stronger hits) amounted to 2.6 % Ctrl.

For orientation: solubility means how much of the substance goes into solution per volume. The Kd is the concentration at which binding is half-saturated.
